# From patent US9562914B2, “Microfluidic device for real-time clinical monitoring and quantitative assessment of whole blood coagulation” (President and Fellows of Harvard College, priority 2013, dated 2017)
# Tested on: whole human blood
# Assay: whole blood clotting time in microfluidic coagulation device (infusion or pressure pump mode)
# Format: cell-based
# Conditions: microchannels coated with human collagen I at 100 μg/ml; device of FIG. 13A; uncoated PDMS 15-60 minutes
# Method: As discussed below, in the test configuration, 2-5 ml of human whole blood was pumped through an infusion or pressure pump followed by an inline pressure sensor that connected to ports 120a, 120b of the microfluidic device 100 via appropriate medical grade tubing (e.g., 1.6 mm ID). In infusion mode, clot formation leads to an increase in pressure, whereas in constant pressure mode, the flow rate drops with respect to time. […] The characteristic constants of these models indicate clotting times at two stages—when the clot formation is accelerating and when the clot has completely occluded the channel. […] Fluorescence microscopy of fibrinogen and platelets allow real-time monitoring of fibrin formation and platelet aggregation simultaneously.
# In the testing conducted with the microfluidic device 100 of FIG. 1, fresh human blood stored in a 5 ml syringe (slip-tip Plastipak, BD, Franklin Lakes, N.J.) was pushed via syringe pump (PHD Ultra CP, Harvard Apparatus, Holliston, Mass.) through an inline, disposable pressure sensor (PREPS-N-000, PendoTECH, Princeton, N.J.) followed by the PDMS device within 15 minutes of blood draw. […] In the test setup, the imaging device 130 used was a fluorescence imaging configured Carl Zeiss Axio 3 Observer microscope (10×, NA 0.3 objective), but other imaging devices may be readily used in accord with the present concepts. […]
substance,measurement,value
human collagen I: human collagen I coated on the microchannels at a concentration of 100 μg/ml,clotting time with collagen-coated microchannels,2 to 20 min
